Test results published in patent US20240238392A1 (priority 2023, published 2024).
Where no end group is shown, it is not given here.

How the values were obtained:
[1] = tested on: chronic heart failure caused by systolic dysfunction; conditions: human, in vivo
[2] = tested on: chronic heart failure caused by diastolic dysfunction; conditions: human, in vivo
[3] = tested on: isolated cardiac fibroblasts; conditions: cited from earlier work
neurokinin-1 receptor = neurokinin-1 receptor (Rattus norvegicus, UniProt P14600); conditions: in vivo; cited from earlier work
[4] = tested on: acute heart failure caused by viral infection; conditions: human, in vivo

Chain of neurokinin-1 receptor (P14600 whole entry): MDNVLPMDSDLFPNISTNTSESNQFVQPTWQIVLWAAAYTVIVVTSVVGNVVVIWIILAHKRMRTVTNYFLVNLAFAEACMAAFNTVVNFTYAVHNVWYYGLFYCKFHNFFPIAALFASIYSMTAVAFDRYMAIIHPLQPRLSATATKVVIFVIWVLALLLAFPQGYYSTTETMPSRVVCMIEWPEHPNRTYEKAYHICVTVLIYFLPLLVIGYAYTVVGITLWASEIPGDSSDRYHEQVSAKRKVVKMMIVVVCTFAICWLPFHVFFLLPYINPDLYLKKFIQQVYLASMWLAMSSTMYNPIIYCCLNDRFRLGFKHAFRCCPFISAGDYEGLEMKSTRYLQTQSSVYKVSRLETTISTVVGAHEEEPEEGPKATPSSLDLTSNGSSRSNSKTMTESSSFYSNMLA

## botulinum toxin
[1]
  Substance P blood levels: lower than before
  patient-reported breath and fatigue: significant improvement in breath and fatigue
[2]
  glutamate blood level: lower than before
  patient-reported breath and pulmonary edema: significant improvement in breath and pulmonary edema
  substance P blood level: lower than before

## substance P: sensory nerve neuropeptide (tachykinin) acting on the neurokinin-1 receptor (RPKPQQFFGLM; ends and bridges not checked; UniProt P20366 58-68, looked up)
[3]
  fibroblast function: no changes in fibroblast function were observed
  genes related to cell-cell adhesion, cell-matrix adhesion, and extracellular matrix regulation: transiently up-regulated

## CC(=O)N[C@@H](Cc1c[nH]c2ccccc12)C(=O)OCc1cc(C(F)(F)F)cc(C(F)(F)F)c1 [L732138]
neurokinin-1 receptor
  cardiac fibrosis in SHR: prevented
  increase of fetal gene expression by cardiomyocytes in SHR: prevented
  upregulation of endothelin-1 in SHR: prevented

## [N-]=[N+]=O [nitrous oxide]
[4]
  glutamate blood level: lower than before
  patient-reported respiratory rate and peripheral edema: significant improvement in respiratory rate and peripheral edema
  substance P blood level: lower than before
